US12655116B2, “Substituted isophthalic acid diamides” (Bayer Aktiengesellschaft, priority 2020, dated 2026)

Legend:
ALOMY [1] = experiment: Pre-emergence herbicidal action against ALOMY; format: in vivo, Alopecurus myosuroides; settings: Alopecurus myosuroides, 504 h, pre-emergence
Procedure, shortened: (§1)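 Herbicidal effect was assessed 3 weeks after treatment by visual comparison with untreated controls, 100% denoting dead plants. Aqueous WP or EC preparations had been applied at 600 to 800 l/ha with 0.2% wetting agent to the soil covering freshly sown seeds.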

ECHCG [2] = experiment: Post-emergence herbicidal action against ECHCG; format: in vivo, Echinochloa crus-galli; settings: dosage 20 g/ha
Procedure, shortened: (§2)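 Post-emergence greenhouse test; one-leaf stage, 2–3 wk post-sowing, sandy loam. Foliar spray of WP/EC in water, 600–800 l/ha, +0.2% wetting agent. Visual % action at ~3 wk vs untreated (100% = plants dead).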

AMARE [3] = experiment: Pre-emergence herbicidal action against AMARE; format: in vivo, Amaranthus retroflexus
Procedure, shortened: as §1

AVEFA [4] = experiment: Post-emergence herbicidal action against AVEFA; format: in vivo, Avena fatua; settings: 20 g/ha, visual assessment about 3 weeks after treatment, 100% = plants have died, 0% = like control plants
Procedure, shortened: as §2

AVEFA [5] = experiment: Pre-emergence herbicidal action against AVEFA; format: in vivo, Avena fatua; settings: Avena fatua, 504 h; 80 g/ha, pre-emergence
Procedure, shortened: as §1

ALOMY [6] = experiment: Post-emergence herbicidal action against ALOMY; format: in vivo, Alopecurus myosuroides; settings: dosage 20 g/ha, visual assessment about 3 weeks after treatment vs untreated controls
Procedure, shortened: as §2

PHBPU = experiment: Post-emergence herbicidal action against PHBPU; format: in vivo, Pharbitis purpurea
Procedure, shortened: as §2

VIOTR [7] = experiment: Pre-emergence herbicidal action against VIOTR; format: in vivo, Viola tricolor
Procedure, shortened: as §1

ABUTH [8] = experiment: Post-emergence herbicidal action against ABUTH; format: in vivo, Abutilon theophrasti; settings: visual assessment about 3 weeks after treatment vs untreated controls
Procedure, shortened: as §2

MATIN [9] = experiment: Post-emergence herbicidal action against MATIN; format: in vivo, Matricaria inodora
Procedure, shortened: as §2

VERPE [10] = experiment: Post-emergence herbicidal action against VERPE; format: in vivo, Veronica persica; settings: 20 g/ha
Procedure, shortened: as §2

MATIN [11] = experiment: Pre-emergence herbicidal action against MATIN; format: in vivo, Matricaria inodora
Procedure, shortened: as §1

POLCO = experiment: Pre-emergence herbicidal action against POLCO; format: in vivo, Polygonum convolvulus; settings: dosage 80 g/ha
Procedure, shortened: as §1

VIOTR [12] = experiment: Post-emergence herbicidal action against VIOTR; format: in vivo, Viola tricolor
Procedure, shortened: as §2

ECHCG [13] = experiment: Pre-emergence herbicidal action against ECHCG; format: in vivo, Echinochloa crus-galli
Procedure, shortened: as §1

ABUTH [14] = experiment: Pre-emergence herbicidal action against ABUTH; format: in vivo, Abutilon theophrasti
Procedure, shortened: as §1

AMARE [15] = experiment: Post-emergence herbicidal action against AMARE; format: in vivo, Amaranthus retroflexus; settings: 20 g/ha, visual assessment about 3 weeks after treatment, 100% = plants have died, 0% = like control plants
Procedure, shortened: as §2

SETVI [16] = experiment: Post-emergence herbicidal action against SETVI; format: in vivo, Setaria viridis; settings: dosage 20 g/ha
Procedure, shortened: as §2

SETVI [17] = experiment: Pre-emergence herbicidal action against SETVI; format: in vivo, Setaria viridis; settings: dosage 80 g/ha
Procedure, shortened: as §1

VERPE [18] = experiment: Pre-emergence herbicidal action against VERPE; format: in vivo, Veronica persica; settings: dosage 80 g/ha
Procedure, shortened: as §1

[19] = 80 g/ha, scored visually after 3 weeks vs untreated controls (100% = plants have died, 0% = like control plants)
[20] = Tripleurospermum inodorum, 504 h, dosage 20 g/ha

**Q.** Which results are given for CCn1nnnc1NC(=O)c1ccc(C(F)(F)F)c(C(=O)NC2CC2)c1SC [Example 2-83]?
**A.** pest or weed control at 80 g/ha (ALOMY [1]; [19]): 90%; pest or weed control at 20 g/ha (ALOMY [1]; 20 g/ha, scored visually after 3 weeks, 100% = plants have died, 0% = like control plants): 90%; pest or weed control at 20 g/ha (ECHCG [2]; Echinochloa crus-galli, 504 h): 90%; pest or weed control at 20 g/ha (AMARE [3]; Amaranthus retroflexus, 504 h, 20 g/ha, scored visually after 3 weeks vs untreated controls, 100% = plants have died, 0% = like control plants): 100%; pest or weed control at 80 g/ha (AMARE [3]; Amaranthus retroflexus, 504 h, 80 g/ha, scored visually after 3 weeks vs untreated controls, 100% = plants have died, 0% = like control plants): 100%; pest or weed control at 20 g/ha (AVEFA [4]; Avena fatua, 504 h): 90%; pest or weed control at 80 g/ha (AVEFA [5]): 90%; pest or weed control at 20 g/ha (ALOMY [6]; Alopecurus myosuroides, 504 h): 100%; pest or weed control at 20 g/ha (PHBPU; Ipomoea purpurea, 504 h, dosage 20 g/ha): 80%; pest or weed control at 80 g/ha (VIOTR [7]; Viola tricolor, 504 h, dosage 80 g/ha): 100%; pest or weed control at 5 g/ha (ABUTH [8]; Abutilon theophrasti, 504 h, dosage 5 g/ha): 90%; pest or weed control at 20 g/ha (ABUTH [8]; Abutilon theophrasti, 504 h, dosage 20 g/ha): 90%; pest or weed control at 5 g/ha (MATIN [9]; Tripleurospermum inodorum, 504 h, dosage 5 g/ha): 80%; pest or weed control at 20 g/ha (MATIN [9]; [20]): 100%; pest or weed control at 20 g/ha (VERPE [10]; Veronica persica, 504 h): 80%; pest or weed control at 20 g/ha (MATIN [11]; [20]): 100%; pest or weed control at 80 g/ha (MATIN [11]; Tripleurospermum inodorum, 504 h, dosage 80 g/ha): 100%; pest or weed control at 80 g/ha (POLCO; Fallopia convolvulus, 504 h): 90%; pest or weed control at 5 g/ha (VIOTR [12]; Viola tricolor, 504 h, 5 g/ha): 80%; pest or weed control at 20 g/ha (VIOTR [12]; Viola tricolor, 504 h, 20 g/ha): 80%; pest or weed control at 80 g/ha (ECHCG [13]; Echinochloa crus-galli, 504 h, 80 g/ha): 90%; pest or weed control at 80 g/ha (ABUTH [14]; Abutilon theophrasti, 504 h, 80 g/ha, scored visually after 3 weeks vs untreated controls (100% = plants have died, 0% = like control plants)): 100%; pest or weed control at 20 g/ha (ABUTH [14]; Abutilon theophrasti, 504 h, dosage 20 g/ha, scored visually after 3 weeks vs untreated controls, 100% = plants have died, 0% = like control plants, read-out: Pre-emergence action against ABUTH (herbicidal activity in percent)): 100%; pest or weed control at 20 g/ha (AMARE [15]; Amaranthus retroflexus, 504 h): 100%; pest or weed control at 20 g/ha (SETVI [16]; Setaria viridis, 504 h): 100%; pest or weed control at 80 g/ha (SETVI [17]; Setaria viridis, 504 h): 100%

**Q.** Which results are given for CCn1nnnc1NC(=O)c1ccc(C(F)(F)F)c(C(=O)NC(C)C2CC2)c1SC (stereo not shown) [Example 2-350]?
**A.** Post-emergence action against ECHCG in % (ECHCG [2]): 100%; Pre-emergence action against AMARE in % (AMARE [3]; 20 g/ha, scored visually after 3 weeks vs untreated controls, 100% = plants have died, 0% = like control plants): 100%; Pre-emergence action against AMARE in % (AMARE [3]; [19]): 100%; Post-emergence action at 20 g/ha against AVEFA in % (AVEFA [4]): 90%; Post-emergence action against ALOMY in % (ALOMY [6]): 80%; Post-emergence action against PHBPU in % (PHBPU; dosage 5 g/ha): 80%; Post-emergence action against PHBPU in % (PHBPU; dosage 20 g/ha): 80%; Pre-emergence action against VIOTR in % (VIOTR [7]; dosage 20 g/ha): 100%; Pre-emergence action against VIOTR in % (VIOTR [7]; dosage 80 g/ha): 100%; Pre-emergence action against VERPE in % (VERPE [18]): 100%; Post-emergence action against ABUTH in % (ABUTH [8]; dosage 20 g/ha): 80%; Post-emergence action against MATIN in % (MATIN [9]; dosage 5 g/ha): 80%; Post-emergence action against MATIN in % (MATIN [9]; dosage 20 g/ha): 90%; Post-emergence action against VERPE in % (VERPE [10]): 80%; Pre-emergence action against MATIN in % (MATIN [11]; dosage 20 g/ha): 100%; Pre-emergence action against MATIN in % (MATIN [11]; dosage 80 g/ha): 100%; Pre-emergence action against POLCO in % (POLCO): 100%; Post-emergence action against VIOTR in % (VIOTR [12]; 5 g/ha): 100%; Post-emergence action against VIOTR in % (VIOTR [12]; 20 g/ha): 100%; Pre-emergence action against ECHCG in % (ECHCG [13]; 20 g/ha): 80%; Pre-emergence action against ECHCG in % (ECHCG [13]; 80 g/ha): 100%; Pre-emergence action against ABUTH (herbicidal activity) (ABUTH [14]; [19]): 100%; Pre-emergence action against ABUTH (herbicidal activity in percent) (ABUTH [14]; dosage 20 g/ha, scored visually after 3 weeks vs untreated controls, 100% = plants have died, 0% = like control plants): 100%; Post-emergence action at 20 g/ha against AMARE in % (AMARE [15]): 100%; Post-emergence action against SETVI in % (SETVI [16]): 100%; Pre-emergence action against SETVI in % (SETVI [17]): 100%
